Consider one compound from paper PMC5218480 (PLoS ONE, 2017).

The test system of the assay is MV-4-11 cells. Briefly: Gene expression microarray analysis (Affymetrix PrimeView) and GSEA. Type of assay: cell-based, human. Also on record: RFU PODN (11730768_x_at) / Fold change /veh PODN (11730768_x_at) / RFU LINC00158 (11744669_a_at) / Fold change /veh LINC00158 (11744669_a_at) / RFU DUSP10 (11751237_a_at) / Fold change /veh DUSP10 (11751237_a_at) / RFU ID3 (11757404_x_at) / Fold change /veh ID3 (11757404_x_at) / RFU PLEKHG5 (11737974_s_at) / Fold change /veh PLEKHG5 (11737974_s_at) / RFU LRRC4B (11730491_at) / Fold change /veh LRRC4B (11730491_at) / RFU GIMAP4 (11747438_a_at) / Fold change /veh GIMAP4 (11747438_a_at) / RFU KRT8 (11758183_x_at) / Fold change /veh KRT8 (11758183_x_at) / RFU CNN1 (11734310_a_at) / Fold change /veh CNN1 (11734310_a_at) / RFU VPS37D (11726825_at) / Fold change /veh VPS37D (11726825_at) / RFU C10orf10 (11716522_x_at) / Fold change /veh C10orf10 (11716522_x_at) / RFU KIR2DL2 /// KIR2DL4 /// KIR2DL5A /// KIR2DL5B /// KIR2DS1 /// KIR2DS2 /// KIR2DS3 /// KIR2DS4 /// KIR3DL3 /// KIR3DL3 /// KIR3DS1 (11738374_at) / Fold change /veh KIR2DL2 /// KIR2DL4 /// KIR2DL5A /// KIR2DL5B /// KIR2DS1 /// KIR2DS2 /// KIR2DS3 /// KIR2DS4 /// KIR3DL3 /// KIR3DL3 /// KIR3DS1 (11738374_at) / RFU C1QL1 (11718748_at) / Fold change /veh C1QL1 (11718748_at) / RFU TMPRSS4 (11747572_a_at) / Fold change /veh TMPRSS4 (11747572_a_at) / RFU HAMP (11756126_x_at) / Fold change /veh HAMP (11756126_x_at) / RFU RNFT2 (11725882_a_at) / Fold change /veh RNFT2 (11725882_a_at) / RFU NR4A2 (11747474_a_at) / Fold change /veh NR4A2 (11747474_a_at) / RFU ABCC12 (11746883_a_at) / Fold change /veh ABCC12 (11746883_a_at) / RFU TMEM136 (11760407_x_at) / Fold change /veh TMEM136 (11760407_x_at) / RFU CLDN22 /// WWC2 (11732394_at) / Fold change /veh CLDN22 /// WWC2 (11732394_at) / RFU HLA-DPB1 (11760878_x_at) / Fold change /veh HLA-DPB1 (11760878_x_at) / RFU SPINT1 (11716480_a_at) / Fold change /veh SPINT1 (11716480_a_at) / RFU GAP43 (11754022_s_at) / Fold change /veh GAP43 (11754022_s_at) / RFU A4GNT (11735810_at) / Fold change /veh A4GNT (11735810_at) / RFU PRB3 (11715151_x_at) / Fold change /veh PRB3 (11715151_x_at) / RFU TUBB4B (11761932_at) / Fold change /veh TUBB4B (11761932_at) / RFU CAPN14 (11732068_a_at) / Fold change /veh CAPN14 (11732068_a_at) / RFU TMCC2 (11721928_a_at) / Fold change /veh TMCC2 (11721928_a_at) / RFU IRGQ (11745062_a_at) / Fold change /veh IRGQ (11745062_a_at) / RFU FAM174B (11720279_a_at) / Fold change /veh FAM174B (11720279_a_at) / RFU TMPRSS4 (11748680_a_at) / Fold change /veh TMPRSS4 (11748680_a_at) / RFU FAM212B (11763350_a_at) / Fold change /veh FAM212B (11763350_a_at) / RFU PLEKHG5 (11743358_a_at) / Fold change /veh PLEKHG5 (11743358_a_at) / RFU ZSCAN30 (11745921_a_at) / Fold change /veh ZSCAN30 (11745921_a_at) / RFU CMKLR1 (11741424_a_at) / Fold change /veh CMKLR1 (11741424_a_at) / RFU LOC101060620 /// MAPK8IP1 (11723275_at) / Fold change /veh LOC101060620 /// MAPK8IP1 (11723275_at) / RFU SPTSSB (11747773_x_at) / Fold change /veh SPTSSB (11747773_x_at) / RFU PRSS12 (11739890_at) / Fold change /veh PRSS12 (11739890_at) / RFU BIN1 (11741810_x_at) / Fold change /veh BIN1 (11741810_x_at) / RFU WNT11 (11732464_a_at) / Fold change /veh WNT11 (11732464_a_at) / RFU C10orf10 (11716521_a_at) / Fold change /veh C10orf10 (11716521_a_at) / RFU C5orf56 (11738089_at) / Fold change /veh C5orf56 (11738089_at) / RFU CYB561 (11721691_x_at) / Fold change /veh CYB561 (11721691_x_at) / RFU ANKRD19P (11752326_a_at) / Fold change /veh ANKRD19P (11752326_a_at) / RFU OR2T12 /// OR2T33 /// OR2T8 (11738714_s_at) / Fold change /veh OR2T12 /// OR2T33 /// OR2T8 (11738714_s_at) / RFU VCAN (11748164_a_at) / Fold change /veh VCAN (11748164_a_at) / RFU JSRP1 (11732532_at) / Fold change /veh JSRP1 (11732532_at) / RFU KRTAP10-11 (11738290_x_at) / Fold change /veh KRTAP10-11 (11738290_x_at) / RFU MYO3A (11730013_a_at) / Fold change /veh MYO3A (11730013_a_at) / RFU EBF3 (11725865_a_at) / Fold change /veh EBF3 (11725865_a_at) / RFU CAMK2N1 (11719241_x_at) / Fold change /veh CAMK2N1 (11719241_x_at) / RFU C5orf56 (11738088_a_at) / Fold change /veh C5orf56 (11738088_a_at) / RFU OLFML3 (11715873_a_at) / Fold change /veh OLFML3 (11715873_a_at) / RFU LOC100653217 /// NTM (11731650_a_at) / Fold change /veh LOC100653217 /// NTM (11731650_a_at) / RFU MAPK11 (11762145_a_at) / Fold change /veh MAPK11 (11762145_a_at) / RFU FIZ1 (11724087_x_at) / Fold change /veh FIZ1 (11724087_x_at) / RFU OASL (11726364_x_at) / Fold change /veh OASL (11726364_x_at) / RFU SOX15 (11748057_x_at) / Fold change /veh SOX15 (11748057_x_at) / RFU CD79A (11719716_a_at) / Fold change /veh CD79A (11719716_a_at) / RFU HIST1H1D (11736915_at) / Fold change /veh HIST1H1D (11736915_at) / RFU CASKIN2 (11723855_a_at) / Fold change /veh CASKIN2 (11723855_a_at) / RFU LOC730098 (11760151_x_at) / Fold change /veh LOC730098 (11760151_x_at) / RFU OR4N2 (11742367_at) / Fold change /veh OR4N2 (11742367_at) / RFU PRRT2 (11749266_a_at) / Fold change /veh PRRT2 (11749266_a_at) / RFU SNX32 (11753110_a_at) / Fold change /veh SNX32 (11753110_a_at) / RFU CDHR5 (11726645_a_at) / Fold change /veh CDHR5 (11726645_a_at) / RFU RCAN1 (11760418_a_at) / Fold change /veh RCAN1 (11760418_a_at) / RFU FAM167A (11723789_a_at) / Fold change /veh FAM167A (11723789_a_at) / RFU FAM26E (11764081_at) / Fold change /veh FAM26E (11764081_at) / RFU ISYNA1 (11749810_s_at) / Fold change /veh ISYNA1 (11749810_s_at) / RFU ACY1 (11761880_at) / Fold change /veh ACY1 (11761880_at) / RFU 11764098_at / Fold change /veh 11764098_at / RFU SAMD14 (11745864_x_at) / Fold change /veh SAMD14 (11745864_x_at) / RFU NPB (11741838_a_at) / Fold change /veh NPB (11741838_a_at) / RFU TMPRSS6 (11731388_a_at) / Fold change /veh TMPRSS6 (11731388_a_at) / RFU KRTAP10-2 (11738614_at) / Fold change /veh KRTAP10-2 (11738614_at) / RFU ARHGAP8 /// PRR5-ARHGAP8 (11727945_x_at) / Fold change /veh ARHGAP8 /// PRR5-ARHGAP8 (11727945_x_at) / RFU KRTAP5-7 /// NADSYN1 (11734609_at) / Fold change /veh KRTAP5-7 /// NADSYN1 (11734609_at) / RFU RASL12 (11751679_a_at) / Fold change /veh RASL12 (11751679_a_at) / RFU CDKN2B (11736163_a_at) / Fold change /veh CDKN2B (11736163_a_at) / RFU PRF1 (11729649_at) / Fold change /veh PRF1 (11729649_at) / RFU, ZNF638 /// ZNF638-IT1 / Fold change vs veh, ZNF638 /// ZNF638-IT1 / RFU, PANK3 / Fold change vs veh, PANK3 / RFU, SH3YL1 / Fold change vs veh, SH3YL1 / RFU, ZEB2 / Fold change vs veh, ZEB2 / RFU, NRIP1 / Fold change vs veh, NRIP1 / RFU, PTTG1IP / Fold change vs veh, PTTG1IP / RFU, CAPN2 / Fold change vs veh, CAPN2 / RFU, MED14 / Fold change vs veh, MED14 / RFU, SNORA58 / Fold change vs veh, SNORA58 / RFU, C1orf63 / Fold change vs veh, C1orf63 / RFU, LRRFIP1 / Fold change vs veh, LRRFIP1 / RFU, NDUFAF7 / Fold change vs veh, NDUFAF7 / RFU, SLC12A2 / Fold change vs veh, SLC12A2 / RFU, IBTK / Fold change vs veh, IBTK / RFU, ESF1 / Fold change vs veh, ESF1 / Fold change vs veh, TMEM50B / RFU, TAOK1 / Fold change vs veh, TAOK1 / RFU, ACBD3 / Fold change vs veh, ACBD3 / RFU, TMA16 / Fold change vs veh, TMA16 / RFU, RWDD3 / Fold change vs veh, RWDD3 / RFU, BCAT1 / Fold change vs veh, BCAT1 / RFU, EDEM3 / Fold change vs veh, EDEM3 / RFU, TMEM33 / Fold change vs veh, TMEM33 / RFU, WDR75 / Fold change vs veh, WDR75 / RFU, AHCTF1 / Fold change vs veh, AHCTF1 / RFU, TFRC / Fold change vs veh, TFRC / RFU, ZDHHC17 / Fold change vs veh, ZDHHC17 / RFU, NOM1 / Fold change vs veh, NOM1 / RFU, ARL8B / Fold change vs veh, ARL8B / RFU, ZBTB11 / Fold change vs veh, ZBTB11 / RFU, TAMM41 / Fold change vs veh, TAMM41 / RFU, KIAA1704 /// LOC100996395 / Fold change vs veh, KIAA1704 /// LOC100996395 / RFU, ING1 / Fold change vs veh, ING1 / RFU, TRMT61B / Fold change vs veh, TRMT61B / RFU, FUBP3 / Fold change vs veh, FUBP3 / RFU, TP53 / Fold change vs veh, TP53 / RFU, TNKS2 / Fold change vs veh, TNKS2 / RFU, ZFP14 / Fold change vs veh, ZFP14 / RFU, ACTR2 / Fold change vs veh, ACTR2 / RFU, PPP3R1 / Fold change vs veh, PPP3R1 / RFU, PIK3R1 / Fold change vs veh, PIK3R1 / RFU, HNRNPA1 / Fold change vs veh, HNRNPA1 / RFU, RNF170 / Fold change vs veh, RNF170 / RFU, ZNF28 / Fold change vs veh, ZNF28 / RFU, RNGTT / Fold change vs veh, RNGTT / RFU, OGT / Fold change vs veh, OGT / RFU, BRD1 / Fold change vs veh, BRD1 / RFU, MARS / Fold change vs veh, MARS / RFU, ZNF655 / Fold change vs veh, ZNF655 / RFU, FAHD1 / Fold change vs veh, FAHD1 / RFU, BDP1 / Fold change vs veh, BDP1 / RFU, LRRCC1 / Fold change vs veh, LRRCC1 / RFU, ARID1A / Fold change vs veh, ARID1A / RFU, ZNF146 / Fold change vs veh, ZNF146 / RFU, ZNF330 / Fold change vs veh, ZNF330 / RFU, GPN3 / Fold change vs veh, GPN3 / RFU, C9orf123 / Fold change vs veh, C9orf123 / RFU, N4BP2L2 / Fold change vs veh, N4BP2L2 / RFU, ARFIP1 / Fold change vs veh, ARFIP1 / RFU, FAM179B / Fold change vs veh, FAM179B / RFU, BCL10 / Fold change vs veh, BCL10 / RFU, UHRF1BP1L / Fold change vs veh, UHRF1BP1L / RFU, BET1 / Fold change vs veh, BET1 / RFU, CNOT2 / Fold change vs veh, CNOT2 / RFU, ZNF268 / Fold change vs veh, ZNF268 / Fold change vs veh, ZNF507 / RFU, DGCR2 / Fold change vs veh, DGCR2 / RFU, WDSUB1 / Fold change vs veh, WDSUB1 / Fold change vs veh, HSP90B1 /// MIR3652 / RFU, ADSS / Fold change vs veh, ADSS / RFU, GK / Fold change vs veh, GK / RFU, ZNF148 / Fold change vs veh, ZNF148 / RFU, TAF9 / Fold change vs veh, TAF9 / RFU, SLC1A5 / Fold change vs veh, SLC1A5 / RFU, SLMO2 / Fold change vs veh, SLMO2 / RFU, ABCC4 / Fold change vs veh, ABCC4 / RFU, LOC101060439 /// RAP1B / Fold change vs veh, LOC101060439 /// RAP1B / RFU, RFX7 / Fold change vs veh, RFX7 / RFU, GTPBP10 / Fold change vs veh, GTPBP10 / RFU, CNEP1R1 / Fold change vs veh, CNEP1R1 / RFU, BIVM-ERCC5 /// ERCC5 / Fold change vs veh, BIVM-ERCC5 /// ERCC5 / RFU, ILF3 / Fold change vs veh, ILF3 / RFU 11762660_at / Fold change /veh 11762660_at / RFU VCAN (11757783_s_at) / Fold change /veh VCAN (11757783_s_at) / RFU DDX43 (11728927_at) / Fold change /veh DDX43 (11728927_at) / RFU KRT8 (11758188_x_at) / Fold change /veh KRT8 (11758188_x_at) / RFU NKD1 (11759106_at) / Fold change /veh NKD1 (11759106_at) / RFU SRD5A1 (11742802_a_at) / Fold change /veh SRD5A1 (11742802_a_at) / RFU TPSAB1 /// TPSB2 (11721975_s_at) / Fold change /veh TPSAB1 /// TPSB2 (11721975_s_at) / RFU GSTM3 (11746129_a_at) / Fold change /veh GSTM3 (11746129_a_at) / RFU IL23R (11737362_x_at) / Fold change /veh IL23R (11737362_x_at) / RFU TMEM51 (11727254_a_at) / Fold change /veh TMEM51 (11727254_a_at) / RFU PIWIL2 (11732686_x_at) / Fold change /veh PIWIL2 (11732686_x_at) / RFU ORM1 (11744905_x_at) / Fold change /veh ORM1 (11744905_x_at) / RFU CCDC152 (11743942_at) / Fold change /veh CCDC152 (11743942_at) / RFU ECM1 (11717891_a_at) / Fold change /veh ECM1 (11717891_a_at) / RFU IL23R (11748794_a_at) / Fold change /veh IL23R (11748794_a_at) / RFU TNFAIP8L3 (11732012_x_at) / Fold change /veh TNFAIP8L3 (11732012_x_at) / RFU MBOAT4 (11741988_at) / Fold change /veh MBOAT4 (11741988_at) / RFU 11764193_at / Fold change /veh 11764193_at / RFU TMEM53 (11763286_at) / Fold change /veh TMEM53 (11763286_at) / RFU MAGEB2 (11727129_at) / Fold change /veh MAGEB2 (11727129_at) / RFU TMEM200A (11744735_a_at) / Fold change /veh TMEM200A (11744735_a_at) / RFU CCDC152 (11751479_a_at) / Fold change /veh CCDC152 (11751479_a_at) / RFU FAM211A (11726209_a_at) / Fold change /veh FAM211A (11726209_a_at) / RFU RGS16 (11746705_a_at) / Fold change /veh RGS16 (11746705_a_at) / RFU VCAN (11755009_s_at) / Fold change /veh VCAN (11755009_s_at) / RFU RHOB (11743442_s_at) / Fold change /veh RHOB (11743442_s_at) / RFU RGS16 (11720943_a_at) / Fold change /veh RGS16 (11720943_a_at) / RFU RGS16 (11720944_at) / Fold change /veh RGS16 (11720944_at) / RFU, VPS4B / Fold change vs veh, VPS4B / RFU, CREB1 / Fold change vs veh, CREB1 / RFU, DNAJC13 / Fold change vs veh, DNAJC13 / RFU, GNAQ / Fold change vs veh, GNAQ / RFU, CDK5R1 / Fold change vs veh, CDK5R1 / RFU, ZRANB3 / Fold change vs veh, ZRANB3 / RFU, CUL4A / Fold change vs veh, CUL4A / RFU, CCNY / Fold change vs veh, CCNY / RFU, UFL1 / Fold change vs veh, UFL1 / RFU, COG3 / Fold change vs veh, COG3 / RFU, DIAPH2 / Fold change vs veh, DIAPH2 / RFU, SKA2 / Fold change vs veh, SKA2 / RFU, AFF3 / Fold change vs veh, AFF3 / RFU, LMF1 / Fold change vs veh, LMF1 / RFU, IPO11 / Fold change vs veh, IPO11 / RFU, DFFB / Fold change vs veh, DFFB / RFU, FOXP1 / Fold change vs veh, FOXP1 / RFU, CARD8 / Fold change vs veh, CARD8 / RFU, STRN3 / Fold change vs veh, STRN3 / RFU, ADK / Fold change vs veh, ADK / RFU, RASSF2 / Fold change vs veh, RASSF2 / RFU, WIPF1 / Fold change vs veh, WIPF1 / RFU, LARP1B / Fold change vs veh, LARP1B / RFU, RASA1 / Fold change vs veh, RASA1 / RFU, RB1 / Fold change vs veh, RB1 / RFU, PPFIA1 / Fold change vs veh, PPFIA1 / RFU, MAT2A / Fold change vs veh, MAT2A / RFU, CCT5 / Fold change vs veh, CCT5 / RFU, WDR92 / Fold change vs veh, WDR92 / RFU, CUX1 / Fold change vs veh, CUX1 / RFU, TTC7A / Fold change vs veh, TTC7A / RFU, TMEM135 / Fold change vs veh, TMEM135 / RFU, DEPTOR / Fold change vs veh, DEPTOR / RFU, CPM / Fold change vs veh, CPM / RFU, DNAJB6 / Fold change vs veh, DNAJB6 / RFU, CACNA2D3 / Fold change vs veh, CACNA2D3 / RFU, DTX4 / Fold change vs veh, DTX4 / RFU, TFCP2 / Fold change vs veh, TFCP2 / RFU, GMCL1 /// GMCL1P1 / Fold change vs veh, GMCL1 /// GMCL1P1 / RFU, AEBP2 / Fold change vs veh, AEBP2 / RFU, SNHG1 /// SNORD22 /// SNORD25 /// SNORD26 /// SNORD27 /// SNORD28 /// SNORD29 /// SNORD31 / Fold change vs veh, SNHG1 /// SNORD22 /// SNORD25 /// SNORD26 /// SNORD27 /// SNORD28 /// SNORD29 /// SNORD31 / Fold change (Aza/veh), C12orf56 (ProbeSet 11735607_a_at) / Fold change (ACY-1035/veh), C12orf56 (ProbeSet 11735607_a_at) / Fold change (Aza/veh), FGFR1OP (ProbeSet 11751329_s_at) / Fold change (ACY-1035/veh), FGFR1OP (ProbeSet 11751329_s_at) / Fold change (Aza/veh), VPS36 (ProbeSet 11739960_a_at) / Fold change (ACY-1035/veh), VPS36 (ProbeSet 11739960_a_at) / RFU SYPL1 (11715823_x_at) / Fold change /veh SYPL1 (11715823_x_at) / RFU IGFBP7 (11715501_s_at) / Fold change /veh IGFBP7 (11715501_s_at) / RFU REEP3 (11722064_at) / Fold change /veh REEP3 (11722064_at) / RFU IGLL1 (11728026_x_at) / Fold change /veh IGLL1 (11728026_x_at): dose or concentration left out as unconfirmed. Conditions: MV-4-11 cells, 48 hours.

As for `Nc1ncn([C@@H]2O[C@H](CO)[C@@H](O)[C@H]2O)c(=O)n1` [azacitidine], the “RFU CCDC152 (11751479_a_at)” value amounted to 11.18 RFU.
